Results published in PubChem BioAssay AID2060510 (Molecular Pharmacology Branch, DTP, NCI, 2025).
pIC50: −log10 of the molar value.

Tested on: 439559-082-T-J2-PDC spheroids viability
Assay: Anticancer human tumor 439559-082-T-J2-PDC patient-derived colon adenocarcinoma cell line growth inhibition [GQUAD]
Conditions: for pIC50: curve of first compound; for viability, T/C: stronger effect = lower value
Procedure, shortened: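 Tumor cells were grown as complex spheroids with HUVEC endothelial cells and mesenchymal stem cells as stroma. G-quadruplex stabilizers were combined with targeted agents over half-log dilutions from near the clinical Cmax, or from 10 microM.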

[1] = second compound 0.0316 µM, first compound 0.0316 µM
[2] = second compound 0.0316 µM, first compound 0.316 µM
[3] = second compound 0.1 µM, first compound 0.0316 µM
[4] = second compound 0.1 µM, first compound 0.316 µM
[5] = second compound 0.316 µM, first compound 0.0316 µM
[6] = second compound 0.316 µM, first compound 0.316 µM
[7] = second compound 1 µM, first compound 0.0316 µM
[8] = second compound 1 µM, first compound 0.316 µM
[9] = second compound 3.16 µM, first compound 0.0316 µM
[10] = second compound 3.16 µM, first compound 0.316 µM
[11] = second compound 10 µM, first compound 0.0316 µM
[12] = second compound 10 µM, first compound 0.316 µM
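Further: spheroids exposed to the agents for 7 days before readout.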
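Wherever viability, T/C is given: percent of luminescence signal in DMSO vehicle wells taken as 100% viability.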

Cn1ncnc1[C@H]1c2n[nH]c(=O)c3cc(F)cc(c23)N[C@@H]1c1ccc(F)cc1 + Cc1[nH]c2ccc(F)cc2c1-c1nc2c3cccnc3c3ncccc3c2[nH]1
pIC50 (second compound 0.0316 µM): < 6.50 | pIC50 (second compound 0.1 µM): < 6.50 | pIC50 (second compound 0.316 µM): < 6.50 | pIC50 (second compound 1 µM): < 6.50 | pIC50 (second compound 3.16 µM): < 6.50 | pIC50 (second compound 10 µM): < 6.50 | viability, T/C (second compound 0.0316 µM, first compound 0.000999 µM): 105% | viability, T/C (second compound 0.0316 µM, first compound 0.00316 µM): 93.7% | viability, T/C (second compound 0.0316 µM, first compound 0.00999 µM): 97.2% | viability, T/C [1]: 89.4% | viability, T/C (second compound 0.0316 µM, first compound 0.0999 µM): 90.4% | viability, T/C [2]: 92.1% | viability, T/C (second compound 0.1 µM, first compound 0.000999 µM): 103% | viability, T/C (second compound 0.1 µM, first compound 0.00316 µM): 105% | viability, T/C (second compound 0.1 µM, first compound 0.00999 µM): 93.6% | viability, T/C [3]: 93.5% | viability, T/C (second compound 0.1 µM, first compound 0.0999 µM): 90% | viability, T/C [4]: 88.9% | viability, T/C (second compound 0.316 µM, first compound 0.000999 µM): 113% | viability, T/C (second compound 0.316 µM, first compound 0.00316 µM): 99% | viability, T/C (second compound 0.316 µM, first compound 0.00999 µM): 99.6% | viability, T/C [5]: 93.4% | viability, T/C (second compound 0.316 µM, first compound 0.0999 µM): 97.2% | viability, T/C [6]: 85.8% | viability, T/C (second compound 1 µM, first compound 0.000999 µM): 87.3% | viability, T/C (second compound 1 µM, first compound 0.00316 µM): 98.5% | viability, T/C (second compound 1 µM, first compound 0.00999 µM): 92% | viability, T/C [7]: 94.1% | viability, T/C (second compound 1 µM, first compound 0.0999 µM): 99.2% | viability, T/C [8]: 84% | viability, T/C (second compound 3.16 µM, first compound 0.000999 µM): 79.6% | viability, T/C (second compound 3.16 µM, first compound 0.00316 µM): 87.5% | viability, T/C (second compound 3.16 µM, first compound 0.00999 µM): 77.3% | viability, T/C [9]: 85.7% | viability, T/C (second compound 3.16 µM, first compound 0.0999 µM): 81.8% | viability, T/C [10]: 76.2% | viability, T/C (second compound 10 µM, first compound 0.000999 µM): 85.7% | viability, T/C (second compound 10 µM, first compound 0.00316 µM): 86.7% | viability, T/C (second compound 10 µM, first compound 0.00999 µM): 72.3% | viability, T/C [11]: 85.8% | viability, T/C (second compound 10 µM, first compound 0.0999 µM): 82% | viability, T/C [12]: 61.8%

O=C(c1cc(Cc2n[nH]c(=O)c3ccccc23)ccc1F)N1CCN(C(=O)C2CC2)CC1 + Cc1[nH]c2ccc(F)cc2c1-c1nc2c3cccnc3c3ncccc3c2[nH]1
pIC50 (second compound 0.0316 µM): < 5.00 | pIC50 (second compound 0.1 µM): < 5.00 | pIC50 (second compound 0.316 µM): < 5.00 | pIC50 (second compound 1 µM): < 5.00 | pIC50 (second compound 3.16 µM): < 5.00 | pIC50 (second compound 10 µM): < 5.00 | viability, T/C [1]: 100% | viability, T/C (second compound 0.0316 µM, first compound 0.1 µM): 110% | viability, T/C [2]: 91.5% | viability, T/C (second compound 0.0316 µM, first compound 1 µM): 96.8% | viability, T/C (second compound 0.0316 µM, first compound 3.16 µM): 102% | viability, T/C (second compound 0.0316 µM, first compound 10 µM): 96.3% | viability, T/C [3]: 103% | viability, T/C (second compound 0.1 µM, first compound 0.1 µM): 104% | viability, T/C [4]: 94.9% | viability, T/C (second compound 0.1 µM, first compound 1 µM): 90.5% | viability, T/C (second compound 0.1 µM, first compound 3.16 µM): 103% | viability, T/C (second compound 0.1 µM, first compound 10 µM): 100% | viability, T/C [5]: 103% | viability, T/C (second compound 0.316 µM, first compound 0.1 µM): 99.3% | viability, T/C [6]: 105% | viability, T/C (second compound 0.316 µM, first compound 1 µM): 102% | viability, T/C (second compound 0.316 µM, first compound 3.16 µM): 107% | viability, T/C (second compound 0.316 µM, first compound 10 µM): 89.9% | viability, T/C [7]: 105% | viability, T/C (second compound 1 µM, first compound 0.1 µM): 102% | viability, T/C [8]: 98.3% | viability, T/C (second compound 1 µM, first compound 1 µM): 99.3% | viability, T/C (second compound 1 µM, first compound 3.16 µM): 105% | viability, T/C (second compound 1 µM, first compound 10 µM): 89% | viability, T/C [9]: 90.8% | viability, T/C (second compound 3.16 µM, first compound 0.1 µM): 79% | viability, T/C [10]: 92.7% | viability, T/C (second compound 3.16 µM, first compound 1 µM): 89.9% | viability, T/C (second compound 3.16 µM, first compound 3.16 µM): 98.8% | viability, T/C (second compound 3.16 µM, first compound 10 µM): 87.3% | viability, T/C [11]: 88.2% | viability, T/C (second compound 10 µM, first compound 0.1 µM): 87.1% | viability, T/C [12]: 86.2% | viability, T/C (second compound 10 µM, first compound 1 µM): 76% | viability, T/C (second compound 10 µM, first compound 3.16 µM): 90.5% | viability, T/C (second compound 10 µM, first compound 10 µM): 89.5%
